Data reported in US20030176494A1, “Novel coumarin and chromene compounds and methods of preparation and use thereof for treating or preventing viral infections” (priority 2001, published 2003).
In brackets after ≈: the same amount, converted by molar mass. Where two headings read alike, the source gives them in different places.

What was measured:
HIV = test: Anti-HIV evaluation by MTT-tetrazolium method (inhibition of CPE in MT-2 / CEM-SS cells); assay type: cell-based; conditions: Human immunodeficiency virus 1, CEM-SS; read-out: Antiviral Activities (EC50) HIV
Method: This example illustrates the anti-HIV activity of various coumarin and chromene compounds which were evaluated using the published MTT-tetrazolium methods^8. Retroviral agents AZT and DDC were used as controls for comparison purposes.
The cells used for screening were the MT-2 and the human T4-lymphoblastoid cell line, CEM-SS, and were grown in RPMI 1640 medium supplemented with 10% fetal (v/v) heat-inactivated fetal calf serum and also containing 100 units/mL penicillin, 100 μg/mL streptomycin, 25 mM HEPES and 20 μg/mL gentamicin. The medium used for dilution of drugs and maintenance of cultures during the assay was the same as above. The HTLV-IIIB and HTLV-RF were propagated in CEM-SS. The appropriate amounts of the pure compounds for anti-HIV evaluations were dissolved in DMSO, then diluted in medium to the desired initial concentration. The concentrations (M medium) employed were […]; 0.001 μM; 0.0032 μM; 0.01 μM; 0.032 μM; 0.1 μM; 0.32 μM; 1 μM; 3.2 μM; 10 μM; 32 μM; and 100 μM. Each dilution was added to plates in the amount of 100 μL/well. Drugs were tested in triplicate wells per dilution with infected cells while in duplicate wells per dilution with uninfected cells for evaluation of cytotoxicity. On day 6 (CEM-SS cells) and day 7 (MT-2 cells) post-infection, the viable cells were measured with a tetrazolium salt, MTT (5 mg/mL), added to the test plates. A solution of 20% SDS in 0.001 N HCl is used to dissolve the MTT formazan produced. The optical density value was a function of the amount of formazan produced which was proportional to the number of viable cells. The percent inhibition of CPE per drug concentration was measured as a test over control and expressed in percent (T/C %).

HBV = HBV replication in cultures of 2.2.15 cells (HBV DNA blot hybridization); assay type: cell-based; conditions: Hepatitis B virus; read-out: Antiviral Activities (EC50) HBV
Method: Test compounds are then added daily for a continuous 9 day period. Culture medium (changed daily during the treatment period) is collected and stored for analysis of extracellular (virion) HBV DNA after 0, 3, 6, and 9 days of treatment. Treated cells are lysed 24 hours following day 9 of treatment for the analysis of intracellular HBV genomic forms. HBV DVA is then analyzed in a quantitative and qualitative manner for overall levels of HBV DNA (both extracellular and intracellular DNA) and the relative rate of HBV replication (intracellular DNA).
Both intracellular and extracellular HBV DNA are analyzed in order to (i) allow for verification of compound efficacy and (ii) provide possible data on the target site in the HBV replication pathway for the compound from examination of the pattern of viral replicative forms. The culture medium is changed daily during the treatment period to (i) prevent the buildup of potentially toxic metabolites derived from test compounds and (ii) provide an analysis of HBV virion production during discrete 24-hour intervals which enables a quantitative comparison of any effect on virion production.
The analysis of HBV DNA is performed using blot hybridization techniques (Southern and slot blot) and [^32P]-labeled HBV-specific probes. HBV DNA levels are measured by comparison to known amounts of HBV DNA standards applied to every nitrocellulose membrane (gel or slot blot). An AMBIS beta scanner, which measures the radioactive decay of the hybridized probes directly from the nitrocellulose membranes, is used for the quantitative analysis. Standard curves, generated by multiple analyses, are used to correlate CPM measurements made by the beta scanner with relative levels of target HBV DNA. The levels of HBV virion DNA released into the culture medium are analyzed by a slot blot hybridization procedure. HBV DNA levels are then compared to those at Day 0 to determine the effect of drug treatment.
The levels of RI and episomal monomers are used as an indicator of the relative level of HBV replication. Integrated HBV DNA is used to normalize the relative amounts of DNA in each lane because the levels of this class of HBV DNA would be expected to remain constant on a per cell basis. […] Inhibition of HBV DNA replication is indicated by the loss of RI without changes in the level of integrated HBV DNA.

Measles Virus = test: Measles virus antiviral assay (CPE inhibition, neutral red uptake, virus yield); assay type: cell-based, Measles virus strain CC; conditions: Measles morbillivirus
[1] = system: Respiratory Syncytial Virus; test: Respiratory syncytial virus antiviral assay (CPE inhibition, neutral red uptake); assay type: cell-based, Respiratory syncytial virus strain Utah 89; conditions: human respiratory syncytial virus
VZV = VZV plaque reduction assay in human foreskin fibroblast cells; assay type: cell-based, Varicella Zoster Virus (Ellen strain); conditions: Human alphaherpesvirus 3, Fibroblast; read-out: Antiviral Activities (EC50) VZV
Method: [table] Two days prior to use, HFF cells are plated into six-well plates and incubated at 37° C. with 5% CO2 and 90% humidity. On the date of assay, the drug is made up at twice the desired concentration in 2×MEM and then serially diluted 1:5 in 2×MEM using six concentrations of drug. […] The media is then aspirated from the wells and 0.2 mL of virus is added to each well in duplicate with 0.2 mL of media being added to drug toxicity wells. The plates are then incubated for one hour with shaking every fifteen minutes. […] The drug agarose mixture is applied to each well in 2 mL volume and the plates then incubated for three days, after which the cells were stained with a 1.5% solution of neutral red. At the end of 4-6 hr incubation period, the stain is aspirated, and plaques counted using a stereomicroscope at 10× magnification. The procedure is essentially the same as for the HSV plaque assay described above with two exceptions: 1. After addition of the drug, the plates are incubated for ten days. 2.

EBV = EBV assay: superinfection of Raji or Daudi cells with P3HR-1, immunofluorescence for EA and VCA; assay type: cell-based, Epstein-Barr Virus (P3HR-1); conditions: human gammaherpesvirus 4; read-out: Antiviral Activities (EC50) EBV
Excerpt: There are two prototypes of infectious EBV. One is exemplified by the virus derived from supernatant fluids of the P3HR-1cell line. This cell line produces nontransforming virus that causes the production of early antigen (EA) after primary infection or superinfection of B cell lines. The other prototype is exemplified by the B-95-8 virus. This virus immortalized cord blood lymphocytes and induced tumors in marmosets. […] The virus used in our assays is P3HR-1.
Ramos is an exceptional B cell line derived from Burkitt's lymphoma tumor but containing no detectable EBV genome copies and is EBNA negative. Ramos/AW was obtained by in vitro infection of Ramos with the P3HR-1 virus and contains one resident EBV genome copy/cell. Raji is a Burkitt's lymphoma cell line containing 60 EBV genomes/cell, and will be the primary cell used for screening antiviral activity against EBV EA expression. Daudi is a low level producer that contains 152 EBV genome copies/cell. It spontaneously expresses EBV EA in 0.25%-0.5% of the cells. It will be used in follow-up studies to confirm activity. These cell lines respond to superinfection by EBV by expressing EA(D), EA(R), and VCA. All cell lines are maintained in RPMI-1640 medium supplemented by 10% FCS, L-glutamine and 100 μg/mL gentamicin. The cultures are fed twice weekly and the cell concentration adjusted to 3×10^5/mL. The cells are kept at 37° C. in a humidified atmosphere with 5% CO2.
Cells are infected with the P3HR-1 strain of EBV and the drugs to be tested are added after adsorption (45 minutes at 37° C.) and washing of the cell cultures. The cultures are incubated for two days in complete medium to allow viral gene expression. Following the 48 hr incubation period, the number of cells of each sample are counted and smears made. Monoclonal antibodies to the different EA components and VCA are then added to the cells incubated and washed. This is followed by a fluorescein conjugated rabbit anti-mouse Ig antibody; and the number of fluorescence positive cells in the smears are counted. The total number of cells in the cultures positive for EA or VCA are then calculated and compared.

Rhinovirus = Rhinovirus antiviral assay (CPE inhibition, neutral red uptake, virus yield); assay type: cell-based; conditions: Enterovirus
[2] = CPE inhibition, read-out: Antiviral Activities (EC50) Measles (CPE)
[3] = neutral red (NR) dye uptake, read-out: Antiviral Activities (EC50) Measles (NR)
[4] = readout not stated, read-out: Antiviral Activities (EC50) Respiratory Syncitial
[5] = readout not stated, read-out: Antiviral Activities (EC50) Rhinovirus
[6] = CPE inhibition, read-out: Antiviral Activities (EC50) Rhinovirus (CPE)
[7] = neutral red (NR) dye uptake, read-out: Antiviral Activities (EC50) Rhinovirus (NR)

Compound | EC50 (HIV) [µg/mL] | EC50 (HBV) [µg/mL] | EC50 (Measles Virus; [2]) [µg/mL] | EC50 (Measles Virus; [3]) [µg/mL] | EC50 (Measles Virus; read-out: Antiviral Activities (EC50) Measles (virus yield)) [µg/mL] | EC50 [1, 4] [µg/mL] | EC50 (VZV) [µg/mL] | EC50 (EBV) [µg/mL] | EC50 (Measles Virus; readout not stated, read-out: Antiviral Activities (EC50) Measles) [µg/mL] | EC50 (Rhinovirus; [5]) [µg/mL] | EC50 ([1]; CPE inhibition, read-out: Antiviral Activities (EC50) Respiratory Syncitial (CPE)) [µg/mL] | EC50 ([1]; neutral red (NR) dye uptake, read-out: Antiviral Activities (EC50) Respiratory Syncitial (NR)) [µg/mL] | EC50 (Rhinovirus; [6]) [µg/mL] | EC50 (Rhinovirus; [7]) [µg/mL]
CCCc1cc(=O)oc2cc(OC(=O)CC)c3c(c12)OC(C)(C)C=C3 | > 2 | > 10 | 0.4 (≈ 1.17 µM) | 0.3 (≈ 0.876 µM) | 0.32 (≈ 0.935 µM) | 1 (≈ 2.92 µM) | > 4 |  |  |  |  |  |  | 
CCCc1cc(=O)oc2cc(OC(=O)C(C)(C)C)c3c(c12)OC(C)(C)C=C3 | > 7 | > 10 | 0.2 (≈ 0.54 µM) | 0.6 (≈ 1.62 µM) |  |  | > 100 | 0.39 (≈ 1.05 µM) |  |  |  |  |  | 
CCCc1cc(=O)oc2cc(OS(=O)(=O)c3ccc(C)cc3)c3c(c12)OC(C)(C)C=C3 | 1.6 (≈ 3.63 µM) | > 10 |  |  |  | > 100 | > 100 | 0.2 (≈ 0.454 µM) | > 100 | > 100 |  |  |  | 
CCCc1cc(=O)oc2cc(O)c3c(c12)OC(C)(C)C=C3 |  | > 10 | 0.5 (≈ 1.75 µM) | 0.6 (≈ 2.1 µM) |  | 1 (≈ 3.49 µM) | 89 (≈ 311 µM) | > 50 |  |  |  |  |  | 
CCCc1cc(=O)oc2cc(OC(=O)CC)cc(O)c12 | > 5 | > 3 | 2 (≈ 7.24 µM) | 1 (≈ 3.62 µM) |  | 3 (≈ 10.9 µM) | > 20 | > 50 |  | > 100 |  |  |  | 
CCCc1cc(=O)oc2cc(OS(=O)(=O)c3ccc(C)cc3)cc(O)c12 | > 2 | 2.1 (≈ 5.61 µM) | 1 (≈ 2.67 µM) | 1 (≈ 2.67 µM) |  |  | > 100 | 2.1 (≈ 5.61 µM) |  |  | 3 (≈ 8.01 µM) | 2 (≈ 5.34 µM) | 1 (≈ 2.67 µM) | 2 (≈ 5.34 µM)
CCCc1cc(=O)oc2cc(OC(=O)C(C)(C)C)cc(OC(=O)C(C)(C)C)c12 | 2.2 (≈ 5.66 µM) | > 4 | 2 (≈ 5.15 µM) | 3 (≈ 7.72 µM) |  | > 100 | 5.6 (≈ 14.4 µM) | 3.7 (≈ 9.52 µM) |  | 20 (≈ 51.5 µM) |  |  |  | 
CCCc1cc(=O)oc2cc(OCC(C)(C)C(=O)O)c3c(c12)OC(C)(C)C=C3 | > 8 | 2.6 (≈ 6.73 µM) | > 100 | > 100 |  | > 100 |  |  |  |  |  |  | 10 (≈ 25.9 µM) | 1 (≈ 2.59 µM)
CCCc1cc(=O)oc2cc(OC(C)CCO)c3c(c12)OC(C)(C)C=C3 (stereo not drawn) | 1.5 (≈ 4.18 µM) |  |  |  |  |  |  |  |  |  |  |  |  | 
